Experimental data from patent US20230040770A1, “HETEROCYCLIC COMPOUND AND USE THEREOF” (TAKEDA PHARMACEUTICAL COMPANY LIMITED, priority 2019, published 2023).

biological target: T1, human orexin type 2 receptor (Homo sapiens, UniProt O43614); test: Measurement of orexin type 2 receptor agonist activity (calcium indicator fluorescence, CHO cells forcibly expressing human OX2 receptor); assay type: cell-based; settings: compound at 3 μM; 0% = DMSO, 100% = orexin A (human) 10 nM
T1 construct: expressed in transfected cells
T1 sequence (O43614 1-444): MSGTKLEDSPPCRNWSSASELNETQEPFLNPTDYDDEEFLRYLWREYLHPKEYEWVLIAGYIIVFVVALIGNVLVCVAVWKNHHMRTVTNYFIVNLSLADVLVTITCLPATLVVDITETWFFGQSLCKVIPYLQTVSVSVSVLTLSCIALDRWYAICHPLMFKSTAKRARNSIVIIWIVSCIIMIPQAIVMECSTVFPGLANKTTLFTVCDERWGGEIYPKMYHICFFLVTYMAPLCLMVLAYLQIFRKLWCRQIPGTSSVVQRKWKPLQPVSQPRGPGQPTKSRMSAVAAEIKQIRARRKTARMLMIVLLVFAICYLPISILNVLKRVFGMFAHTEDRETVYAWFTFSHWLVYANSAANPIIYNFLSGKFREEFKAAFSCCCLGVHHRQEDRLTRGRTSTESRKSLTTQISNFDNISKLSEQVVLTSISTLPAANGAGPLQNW
Description: To obtain a cell clone stably expressing human orexin type 2 receptor, human orexin type 2 receptor cDNA was inserted into pcDNA3.1(+) plasmid vector (Invitrogen), and a plasmid DNA for expression of human orexin type 2 receptor (pcDNA3.1(+)/hOX2R) was cloned. The plasmid DNA was introduced into CHO-dhfr cell by an electroporation method, and human orexin type 2 receptor expressing clone cells were obtained by limiting dilution method by using G418 drug resistance as a selection marker.
CHO cells forcibly expressing human OX2 receptor were seeded in each well of 384 well black transparent bottom plate (BD Falcon) at 7,500 cells/well, and cultured for one day in a 5% CO2 incubator at 37° C. After removal of the medium in the cell plate, assay buffer A containing a calcium indicator (HBSS (Thermo Fisher Scientific), 20 mM HEPES (Thermo Fisher Scientific), 0.1% BSA (Sigma-Aldrich), 2.5 μg/mL Fluo-4 AM (DOJINDO Chemical), 0.08% Pluronic F127 (DOJINDO Chemical), 1.25 mM probenecid (DOJINDO Chemical)) was added at 30 μL/well. The plate was stood for 30 min in a 5% CO2 incubator at 37° C., and further stood at room temperature for 30 min. A test compound prepared by diluting with assay buffer B (HBSS, 20 mM HEPES, 0.1% BSA) was added at 10 μL/well, and the fluorescence value was measured by FDSSμCELL (Hamamatsu Photonics K.K.) every one sec for 1 min, and thereafter every two sec for […]. The activity (%) of the test compound was calculated assuming that variation in the fluorescence value when DMSO was added instead of the test compound was 0%, and variation in the fluorescence value when orexin A (human) (PEPTIDE INSTITUTE, INC.) was added at the final concentration of 10 nM was 100%.

OX2R agonist activity (3 μM, %) | Structure (SMILES)
89% | CS(=O)(=O)N[C@@H]1[C@H](Cc2cccc(-c3cc(F)ccc3F)c2F)N(C(=O)[C@H]2CCO2)CC1(F)F [Example 122, N-{(2S,3R)-4,4-difluoro-1-((2R)-oxetane-2-carbonyl)-2-[(2,2′,5′-trifluoro[1,1′-biphenyl-]-3-yl)methyl]pyrrolidin-3-yl}methanesulfonamide]
89% | O=C(C1CCO1)N1CC(F)(F)[C@H](NS(=O)(=O)C2CC2)[C@@H]1Cc1cccc(-c2ccccc2)c1F (stereo partly drawn) [Example 124, N-[(2S,3R)-4,4-difluoro-2-[(2-fluoro[1,1′-biphenyl]-3-yl)methyl]-1-(oxetane-2-carbonyl)pyrrolidin-3-yl]cyclopropanesulfonamide]
92% | O=C(C1CCO1)N1CC(F)(F)[C@H](NS(=O)(=O)C2CC2)[C@@H]1Cc1cccc(-c2cccc(F)c2)c1F (stereo partly drawn) [Example 129, N-[(2S,3R)-2-[(2,3′-difluoro[1,1′-biphenyl]-3-yl)methyl]-4,4-difluoro-1-(oxetane-2-carbonyl)pyrrolidin-3-yl]cyclopropanesulfonamide]
94% | CC(C)C(=O)N1CC(F)(F)[C@H](NS(C)(=O)=O)[C@@H]1Cc1cccc(-c2cccc(F)c2F)c1 [Example 131, N-[(2S,3R)-2-[(2′,3′-difluoro[1,1′-biphenyl]-3-yl)methyl]-4,4-difluoro-1-(2-methylpropanoyl)pyrrolidin-3-yl]methanesulfonamide]
96% | CS(=O)(=O)N[C@@H]1[C@H](Cc2cccc(-c3cccc(F)c3F)c2F)N(C(=O)[C@@H]2CCO2)CC1(F)F [Example 133, N-{(2S,3R)-4,4-difluoro-1-((2S)-oxetane-2-carbonyl)-2-[(2,2′,3′-trifluoro[1,1′-biphenyl]-3-yl)methyl]pyrrolidin-3-yl}methanesulfonamide]
97% | CN(C)C(=O)N1CC(F)(F)[C@H](NS(=O)(=O)N(C)C)[C@@H]1Cc1cccc(-c2ccccc2)c1F [Example 138, (2S,3R)-3-[(dimethylsulfamoyl)amino]-4,4-difluoro-2-[(2-fluoro[1,1′-biphenyl]-3-yl)methyl]-N,N-dimethylpyrrolidine-1-carboxamide]
93% | CN(C)S(=O)(=O)N[C@@H]1[C@H](Cc2cccc(-c3ccccc3)c2F)N(C(=O)N2CCC2)CC1(F)F [Example 139, N′-{(2S,3R)-1-(azetidine-1-carbonyl)-4,4-difluoro-2-[(2-fluoro[1,1′-biphenyl]-3-yl)methyl]pyrrolidin-3-yl}-N,N-dimethylsulfuric diamine]
99% | CN(C)S(=O)(=O)N[C@@H]1[C@H](Cc2cccc(-c3ccccc3)c2F)N(C(=O)C2(O)CCC2)CC1(F)F [Example 145, N′-[(2S,3R)-4,4-difluoro-2-[(2-fluoro[1,1′-biphenyl]-3-yl)methyl]-1-(1-hydroxycyclobutane-1-carbonyl)pyrrolidin-3-yl]-N,N-dimethylsulfuric diamide]
91% | CCS(=O)(=O)N[C@@H]1[C@H](Cc2cccc(-c3cc(F)ccc3F)c2F)N(C(=O)C(C)C)CC1(F)F [Example 147, N-{(2S,3R)-4,4-difluoro-1-(2-methylpropanoyl)-2-[(2,2′,5′-trifluoro[1,1′-biphenyl]-3-yl)methyl]pyrrolidin-3-yl}ethanesulfonamide]
92% | O=C(C1CCO1)N1CC(F)(F)[C@H](NS(=O)(=O)C2CC2)[C@@H]1Cc1cccc(-c2cc(F)cc(F)c2)c1F (stereo partly drawn) [Example 162, N-{(2S,3R)-4,4-difluoro-1-(oxetane-2-carbonyl)-2-[(2,3′,5′-trifluoro[1,1′-biphenyl]-3-yl)methyl]pyrrolidin-3-yl}cyclopropanesulfonamide]
105% | CC(C)C(=O)N1CC(F)(F)[C@H](NS(=O)(=O)C2CC2)[C@@H]1Cc1cccc(-c2cccc(F)c2)c1F [Example 163, N-[(2S,3R)-2-[(2,3′-difluoro[1,1′-biphenyl]-3-yl)methyl]-4,4-difluoro-1-(2-methylpropanoyl)pyrrolidin-3-yl]cyclopropanesulfonamide]
98% | CC(C)C(=O)N1CC(F)(F)[C@H](NS(=O)(=O)C2CC2)[C@@H]1Cc1cccc(-c2cc(F)cc(F)c2)c1F [Example 166]
99% | CC(C)C(=O)N1CC(F)(F)[C@H](NS(=O)(=O)C2CC2)[C@@H]1Cc1cccc(-c2ccccc2)c1F [Example 171, N-[(2S,3R)-4,4-difluoro-2-[(2-fluoro[1,1′-biphenyl]-3-yl)methyl]-1-(2-methylpropanoyl)pyrrolidin-3-yl]cyclopropanesulfonamide]
90% | CCS(=O)(=O)N[C@@H]1[C@H](Cc2cccc(-c3cccc(F)c3F)c2)N(C(=O)C2CCO2)CC1(F)F (stereo partly drawn) [Example 174, N -[(2S,3R)-2-[(2′,3′-difluoro[1,1′-biphenyl]-3-yl)methyl]-4,4-difluoro-1-(oxetane-2-carbonyl)pyrrolidin-3-yl]ethanesulfonamide]
95% | CCS(=O)(=O)N[C@@H]1[C@H](Cc2cccc(-c3cccc(F)c3F)c2)N(C(=O)C2CCO2)CC1(F)F (stereo partly drawn) [Example 175, N-[(2S,3R)-2-[(2′,3′-difluoro[1,1′-biphenyl]-3-yl)methyl]-4,4-difluoro-1-(oxetane-2-carbonyl)pyrrolidin-3-yl]ethanesulfonamide]
94% | CCS(=O)(=O)N[C@@H]1[C@H](Cc2cccc(-c3cccc(F)c3)c2F)N(C(=O)C2CC2)CC1(F)F [Example 202, N-{(2S,3R)-1-(cyclopropanecarbonyl)-2-[(2,3′-difluoro[1,1′-biphenyl]-3-yl)methyl]-4,4-difluoropyrrolidin-3-yl}ethanesulfonamide]
89% | CCS(=O)(=O)N[C@@H]1[C@H](Cc2cccc(-c3cccc(F)c3F)c2F)N(C(=O)C2CC2)CC1(F)F [Example 204, N-{(2S,3R)-1-(cyclopropanecarbonyl)-4,4-difluoro-2-[(2,2′,3′-trifluoro[1,1′-biphenyl]-3-yl)methyl]pyrrolidin-3-yl}ethanesulfonamide]
91% | CCS(=O)(=O)N[C@@H]1[C@H](Cc2cccc(-c3ccccc3)c2F)N(C(=O)C2CC2)CC1(F)F [Example 205, N-{(2S,3R)-1-(cyclopropanecarbonyl)-4,4-difluoro-2-[(2-fluoro[1,1′-biphenyl]-3-yl)methyl]pyrrolidin-3-yl}ethanesulfonamide]
88% | CCS(=O)(=O)N[C@H]1[C@@H](F)CN(C(=O)C(C)(C)O)[C@H]1Cc1cccc(-c2cccc(F)c2)c1F [Example 207, N-[(2S,3R,4S)-2-[(2,3′-difluoro[1,1′-biphenyl]-3-yl)methyl]-4-fluoro-1-(2-hydroxy-2-methylpropanoyl)pyrrolidin-3-yl]ethanesulfonamide]
95% | CCS(=O)(=O)N[C@H]1[C@@H](F)CN(C(=O)N(C)C)[C@H]1Cc1cccc(-c2cccc(F)c2)c1F [Example 210, (2S,3R,4S)-2-[(2,3′-difluoro[1,1′-biphenyl]-3-yl)methyl]-3-[(ethanesulfonyl)amino]-4-fluoro-N,N-dimethylpyrrolidine-1-carboxamide]
94% | CCS(=O)(=O)N[C@H]1[C@@H](F)CN(C(=O)N2CCC2)[C@H]1Cc1cccc(-c2cccc(F)c2)c1F [Example 211, N-{(2S,3R,4S)-1-(azetidine-1-carbonyl)-2-[(2,3′-difluoro[1,1′-biphenyl]-3-yl)methyl]-4-fluoropyrrolidin-3-yl}ethanesulfonamide]
96% | CCS(=O)(=O)N[C@H]1[C@@H](F)CN(C(=O)C2CC2)[C@H]1Cc1cccc(-c2cccc(F)c2)c1F [Example 212, N-{(2S,3R,4S)-1-(cyclopropanecarbonyl)-2-[(2,3′-difluoro[1,1′-biphenyl]-3-yl)methyl]-4-fluoropyrrolidin-3-yl}ethanesulfonamide]
95% | CCS(=O)(=O)N[C@H]1[C@@H](F)CN(C(=O)C2CCO2)[C@H]1Cc1cccc(-c2cccc(F)c2)c1F (stereo partly drawn) [Example 216, N-[(2S,3R,4S)-2-[(2,3′-difluoro[1,1′-biphenyl]-3-yl)methyl]-4-fluoro-1-(oxetane-2-carbonyl)pyrrolidin-3-yl]ethanesulfonamide]
